How the values were obtained:
[1] = test system: HME87 line of normal human mammary epithelial cells; assay: Cell cycle parameters after BPDE treatment; type: cell-based
Procedure: Data for several genes whose expression did change at one or more time points is listed in Table 11 with two prominent examples shown in FIG. 20. The most dramatic change was in the expression of the transcription factor ATF3, which increased 8-9 fold at 4 and 10 h, then dropped to a 2.4-fold increase at 24 h. Changes in ATF3 expression in response to damage induced by BPDE or related compounds have not previously been described, and it will be very interesting to determine both the mechanism and the consequences of this induction. The p21/WAF1 gene, a downstream target of p53, is a mediator of G1 arrest in response to DNA damage (Levine, 1997). […] Thus, the COP analyses performed in this system have given a variety of clues concerning mechanisms operative in cells soon after BPDE treatment.

[2] = test system: HME87 line of normal human mammary epithelial cells; assay: DNA damage in BPDE-treated cells; type: cell-based; details: 30 min BPDE treatment
Procedure: Control cultures were treated with tetrahydrofuran only.

[3] = test system: HME87 line of normal human mammary epithelial cells; assay: COP analysis of gene expression after carcinogen (BPDE) treatment; type: cell-based
[4] = test system: HME87 line of normal human mammary epithelial cells; details: 30 min BPDE treatment; for at least 48 h
[5] = at one or more time points after BPDE treatment

In the case of OC1c2cc3ccc4cccc5ccc(c2C2OC2C1O)c3c45 (racemic) [BPDE, ±7r,8t-dihydroxy-9,10t-epoxy-7,8,9,10-tetrahydro-benzo[a]pyrene], the G1 arrest ([1]; 4 and 10 h after BPDE treatment) is reported as “no G1 arrest”, the G1 arrest ([1]; by 24 h after BPDE treatment) is reported as “appear to be a G1 arrest” and the “DNA damage in the treated cells” value [2] is reported as “induces a high level of DNA damage”. For the same compound, the “ACTB expression E/C” value ([3]; 4 h after BPDE treatment) was 1.1 ± 0.2, the “ATF3 expression E/C” value ([3]; 4 h after BPDE treatment) was 7.8 ± 4.0 and the “Beclin expression E/C” value ([3]; 4 h after BPDE treatment) was 2.1 ± 1.4. For the same compound, the “CEBPE expression E/C” value ([3]; 4 h after BPDE treatment) was 0.9 ± 0.3, the “GADD45 expression E/C” value ([3]; 4 h after BPDE treatment) was 2.1 ± 0.7 and the “LMNA expression E/C” value ([3]; 4 h after BPDE treatment) was 0.7 ± 0.2. The “RPL23a expression E/C” value ([3]; 4 h after BPDE treatment) was 0.6 ± 0.1, the “RPL30 expression E/C” value ([3]; 4 h after BPDE treatment) was 0.8 ± 0.1 and the “RPL35 expression E/C” value ([3]; 4 h after BPDE treatment) was 1.2 ± 0.3. The “RPP1 expression E/C” value ([3]; 4 h after BPDE treatment) was 1.4 ± 0.1, the “RPS7 expression E/C” value ([3]; 4 h after BPDE treatment) was 1.1 ± 0.2 and the “RPS15a expression E/C” value ([3]; 4 h after BPDE treatment) was 1.0 ± 0.3. For the same compound, the “RPS26 expression E/C” value ([3]; 4 h after BPDE treatment) was 1.2 ± 0.3, the “RPS29 expression E/C” value ([3]; 4 h after BPDE treatment) was 1.1 ± 0.2 and the “TP53 expression E/C” value ([3]; 4 h after BPDE treatment) was 1.1 ± 0.4. The “p21 expression E/C” value ([3]; 4 h after BPDE treatment) was 1.0 ± 0.1, the “RPS27 expression E/C” value ([3]; 4 h after BPDE treatment, E=BPDE, C=solvent only) was 0.9 ± 0.3 and the “ACTB expression E/C” value ([3]; 10 h after BPDE treatment) was 0.9 ± 0.2. For the same compound, the “ATF3 expression E/C” value ([3]; 10 h after BPDE treatment) was 9.2 ± 3.9, the “BTF3 expression E/C” value ([3]; 10 h after BPDE treatment) was 1.0 ± 0.2 and the “Beclin expression E/C” value ([3]; 10 h after BPDE treatment) was 2.0 ± 1.1. The “GADD45 expression E/C” value ([3]; 10 h after BPDE treatment) was 1.9 ± 0.7, the “LMNA expression E/C” value ([3]; 10 h after BPDE treatment) was 1.1 ± 0.3 and the “PGK expression E/C” value ([3]; 10 h after BPDE treatment) was 1.0 ± 0.2. The “RPL23a expression E/C” value ([3]; 10 h after BPDE treatment) was 1.1 ± 0.3, the “RPL30 expression E/C” value ([3]; 10 h after BPDE treatment) was 1.0 ± 0.1 and the “RPL35 expression E/C” value ([3]; 10 h after BPDE treatment) was 1.1 ± 0.4. The “RPP1 expression E/C” value ([3]; 10 h after BPDE treatment) was 1.0 ± 0.4, the “RPS7 expression E/C” value ([3]; 10 h after BPDE treatment) was 1.4 ± 0.5 and the “RPS15a expression E/C” value ([3]; 10 h after BPDE treatment) was 1.4 ± 0.6. For the same compound, the “RPS16 expression E/C” value ([3]; 10 h after BPDE treatment) was 0.8 ± 0.1, the “RPS26 expression E/C” value ([3]; 10 h after BPDE treatment) was 1.3 ± 0.5 and the “RPS27 expression E/C” value ([3]; 10 h after BPDE treatment) was 1.2 ± 0.4. For the same compound, the “RPS29 expression E/C” value ([3]; 10 h after BPDE treatment) was 1.3 ± 0.6, the “TP53 expression E/C” value ([3]; 10 h after BPDE treatment) was 0.9 ± 0.1 and the “p21 expression E/C” value ([3]; 10 h after BPDE treatment) was 1.1 ± 0.2. For the same compound, the “ACTB expression E/C” value ([3]; 24 h after BPDE treatment) was 1.3 ± 0.4, the “ATF3 expression E/C” value ([3]; 24 h after BPDE treatment) was 2.4 ± 0.7 and the “BTF3 expression E/C” value ([3]; 24 h after BPDE treatment) was 0.9 ± 0.2. The “CEBPE expression E/C” value ([3]; 24 h after BPDE treatment) was 1.0 ± 0.3, the “GADD45 expression E/C” value ([3]; 24 h after BPDE treatment) was 0.8 ± 0.4 and the “IMPD expression E/C” value ([3]; 24 h after BPDE treatment) was 0.8 ± 0.2. The “LMNA expression E/C” value ([3]; 24 h after BPDE treatment) was 0.9 ± 0.3, the “MYC expression E/C” value ([3]; 24 h after BPDE treatment) was 1.2 ± 0.5 and the “NFKB expression E/C” value ([3]; 24 h after BPDE treatment) was 1.5 ± 0.4. The “PGK expression E/C” value ([3]; 24 h after BPDE treatment) was 1.1 ± 0.2, the “RPL23a expression E/C” value ([3]; 24 h after BPDE treatment) was 1.0 ± 0.2 and the “RPL30 expression E/C” value ([3]; 24 h after BPDE treatment) was 1.0 ± 0.2. For the same compound, the “RPL35 expression E/C” value ([3]; 24 h after BPDE treatment) was 1.2 ± 0.6, the “RPP1 expression E/C” value ([3]; 24 h after BPDE treatment) was 1.7 ± 1.0 and the “RPS7 expression E/C” value ([3]; 24 h after BPDE treatment) was 1.7 ± 0.8. For the same compound, the “RPS15a expression E/C” value ([3]; 24 h after BPDE treatment) was 1.2 ± 0.3, the “RPS16 expression E/C” value ([3]; 24 h after BPDE treatment) was 0.9 ± 0.2 and the “RPS26 expression E/C” value ([3]; 24 h after BPDE treatment) was 1.5 ± 0.6. For the same compound, the “RPS27 expression E/C” value ([3]; 24 h after BPDE treatment) was 0.9 ± 0.2, the “RPS29 expression E/C” value ([3]; 24 h after BPDE treatment) was 1.7 ± 1.2 and the “SL1 expression E/C” value ([3]; 24 h after BPDE treatment) was 1.0 ± 0.3. The “TP53 expression E/C” value ([3]; 24 h after BPDE treatment) was 0.8 ± 0.3, the “p21 expression E/C” value ([3]; 24 h after BPDE treatment) was 2.3 ± 0.7 and the “increase in expression of transcription factor ATF3” value ([3]; at 4 and 10 h after BPDE treatment) was 8-9 fold. The “increase in expression of transcription factor ATF3” value ([3]; at 24 h after BPDE treatment) was 2.4 fold, the “increase of p21/WAF1 gene expression” value ([3]; at 24 h after BPDE treatment) was “about 2 fold” and the “expression of beclin (protein related to apoptosis)” value [3, 5] was “upregulated”. The “expression of transcription factor CP2” value [3, 5] was “upregulated”, the “induction of p21/WAF1 gene” value ([3]; early times after BPDE treatment) was “not induced” and the “expression of the majority of over 450 genes analyzed” value ([3]; one or more time points after BPDE treatment) was “no significant changes in expression”. The toxicity of treatment [4] was “not demonstrably toxic”.

Source: patent US20030027141A1, “Combinatorial oligonucleotide PCR: a method for rapid, global expression analysis” (Board of Regents, The University of Texas System, priority 1999, published 2003)
